Experimental data reported in patent US4194009A, “Aryloxyphenylpropylamines for obtaining a psychotropic effect” (Eli Lilly and Company, priority 1976, dated 1980).

Tests used:
[1] = test system: anesthetized cats; assay: electrocardiogram (QRS complex) in anesthetized cats; conditions: intravenous injection
[2] = test system: rats; assay: prevention of brain serotonin depletion caused by 4-chloroamphetamine; assay type: in vivo, rat; conditions: in words
Experimental: Following this injection, the protecting drug was injected at a dose of 15 mg./kg. of rat-weight intraperitoneally and determinations of brain serotonin levels were carried out 4 hours later.

[3] = test system: mice; assay: reserpine hypothermia reversal test; assay type: in vivo; conditions: for reversal of reserpine hypothermia: in words
Experimental: (§1) The apomorphine hypothermia antagonism test is carried out as follows: mice are injected with a dose of apomorphine known to reduce body temperature approximately 4° C. The compound under test is injected 1/2 hour before the injection of the apomorphine and the temperatures measured 1/2 hour after injection. The degree of antagonism is expressed as a percent reduction (as compared with controls) of the temperature decrease produced by the injection of the apomorphine. The reserpine hypothermia reversal test is carried out as follows: groups of mice are injected with reserpine and 16.5 hours later are injected intraperitoneally with graded doses of the drug, a different dose level being given to each group of mice. Temperatures are measured at 1 hour after injection of the drug under test and again the effectiveness of the drug is expressed as a percentage decrease in the hypothermia induced by the injection of reserpine as compared with the control group. In the tables which follow, Table 4 gives the results in the apomorphine antagonism and reserpine reversal hypothermia tests for the secondary amines of this invention. In the table, the first column gives the substituent attached to the oxygen atom at the 3 position of the propylamine chain; columns 2 to 4 the percent antagonism against apomorphine hypothermia at dose levels of 0.3, 1 and 3 mg./kg. and columns 5-7 the percent reversal of reserpine hypothermia at the same dose levels.

[4] = test system: mice; assay: apomorphine hypothermia antagonism test; assay type: in vivo; conditions: for antagonism of apomorphine hypothermia: in words
Experimental: as §1

[5] = test system: isolated muscle strips; assay: antihistaminic effect in isolated muscle strips; assay type: cell-based
[6] = test system: isolated muscle strips; assay: antiserotonin effect in isolated muscle strips; assay type: cell-based
[7] = test system: isolated muscle strips; assay: anticholinergic effect in isolated muscle strips; assay type: cell-based
[8] = test system: pigeons; assay: operant behavior, fixed-ratio, fixed interval schedule in pigeons; assay type: in vivo
[9] = prevention of brain monoamine depletion caused by α-ethyl-4-methyl-m-tyramine; assay type: in vivo; conditions: in words
[10] = test system: dopamine uptake by synaptosomes from rat brain; assay: blockage of dopamine uptake by synaptosomes from rat brain; assay type: biochemical
Text: (§2) This blockade is shown both in vitro with radioactive labelled compounds to determine the amount of monoamine uptake by synaptosomes from rat brain, and in vivo by a variety of methods. Among the physiologically active monoamines whose uptake is blocked by the compounds of this invention are included serotonin, norepinephrine and dopamine (3,4-dihydroxyphenylethylamine). […] Tables 1 and 2 which follow set forth the results of some of the in vitro determinations of the blockage of monoamine uptake by the compounds of this invention. In the tables, column 1 gives the R substituent on the 3-phenylpropylamine and columns 2-4, the concentration in micrograms per ml. that blocks the uptake of a particular amine by 50 percent for the amines--norephinephrine, serotonin, and dopamine. At the head of each column is given the concentration of the particular monoamine used in the experiment.

[11] = test system: norepinephrine uptake by synaptosomes from rat brain; assay: blockage of norepinephrine uptake by synaptosomes from rat brain; assay type: biochemical
Text: as §2

[12] = test system: serotonin uptake by synaptosomes from rat brain; assay: blockage of serotonin uptake by synaptosomes from rat brain; assay type: biochemical; conditions: Table 1, serotonin 0.1 μM
Text: In the tables, column 1 gives the R substituent on the 3-phenylpropylamine and columns 2-4, the concentration in micrograms per ml. that blocks the uptake of a particular amine by 50 percent for the amines--norephinephrine, serotonin, and dopamine. At the head of each column is given the concentration of the particular monoamine used in the experiment.

[13] = Table 1, norepinephrine 0.48 μM
[14] = Table 5, mice, 3 mg./kg. intraperitoneally
[15] = Table 5, mice, 10 mg./kg. intraperitoneally

With COc1ccccc1OC(CCN)c1ccccc1 (stereo not shown) [3-(o-Methoxyphenoxy)-3-phenylpropylamine, 3-(o-methoxyphenoxy)-3-phenylpropylamine] the “widening of the QRS complex of the electrocardiogram” value [1] was “affects the electrocardiogram similarly, but at far higher doses”.
For NCCC(Oc1ccc(C(F)(F)F)cc1)c1ccccc1.O=C(O)C(=O)O (stereo not shown) [3-(p-trifluoromethylphenoxy)-3-phenylpropylamine oxalate], the “prevention of serotonin depletion caused by 4-chloroamphetamine” value (from here on “prevention of serotonin depletion caused”) [2] was “gave similar results”.
With CN(C)CCC=C1c2ccccc2CCc2ccccc21 [amitriptyline, reference compound] the “widening of the QRS complex of the electrocardiogram” value [1] was “causes a widening of the QRS complex”, the “reversal of reserpine hypothermia” value [3] was “active” and the “antagonism of apomorphine hypothermia” value [4] was “active”.
For CNCCCN1c2ccccc2CCc2ccccc21 [desmethylimipramine], the “reversal of reserpine hypothermia” value [3] was “active”, the “antagonism of apomorphine hypothermia” value [4] was “active” and the “antihistaminic potency relative to N-methyl 3-(o-methoxyphenoxy)-3-phenylpropylamine” value [5] was 150 times. For the same compound, the “antiserotonin potency relative to N-methyl 3-(o-methoxyphenoxy)-3-phenylpropylamine” value [6] was “three times more potent” and the “anticholinergic potency relative to N-methyl 3-(o-methoxyphenoxy)-3-phenylpropylamine” value [7] was 150 times.
In the case of CNCCC(Oc1ccccc1OC)c1ccccc1 (stereo not shown) [o-anisyl, N-methyl 3-(o-methoxyphenoxy)-3-phenylpropylamine], the “persistence of the effect on response rates” value [8] is reported as “more than 24 hours”.
With CNCCC(Oc1ccc(C(F)(F)F)cc1)c1ccccc1 (stereo not shown) [p-trifluoromethylpenyl, N-methyl 3-(p-trifluoromethylphenoxy)-3-phenylpropylamine] the “prevention of serotonin depletion caused” value [2] was “prevented the depletion of serotonin”, the “depletion of norepinephrine by α-ethyl-4-methyl-m-tyramine” value [9] was “not the depletion of norepinephrine” and the “depletion of serotonin in the brain by α-ethyl-4-methyl-m-tyramine” value [9] was “prevented the depletion of serotonin in the brain”. The “Concentration in mcg./ml. that blocks 50% of amine uptake, Dopamine” value ([10]; Table 2, dopamine 0.2 μM) was over 100 µg/mL and the “Concentration in mcg./ml. that blocks 50% of amine uptake, Norepinephrine” value ([11]; Table 2, norepinephrine 0.48 μM) was 20 µg/mL.
With CN(C)CCC(Oc1ccc(C(F)(F)F)cc1)c1ccccc1 (stereo not shown) [p-trifluoromethylphenyl, N,N-dimethyl 3-(p-trifluoromethylphenoxy)-3-phenylpropylamine] the “prevention of serotonin depletion caused” value [2] was “gave similar results”, the inhibition in vivo at 3 mg/kg ([3]; Mus musculus, ip, 1 h, Table 5, mice, 3 mg./kg. intraperitoneally, read-out: Percent Antagonism Reserpine Post-60 min.) was 20% and the “Concentration in mcg./ml. that blocks 50% of amine uptake, Dopamine” value ([10]; Table 1, dopamine 0.2 μM) was over 100 µg/mL. For the same compound, the inhibition in vivo at 1 mg/kg ([4]; Mus musculus, Table 4, mice, 1 mg./kg., read-out: Percent Antagonism Apomorphine Pre-30 min.) was 11%, the inhibition in vivo at 3 mg/kg ([4]; Mus musculus, Table 4, mice, 3 mg./kg., read-out: Percent Antagonism Apomorphine Pre-30 min.) was 25% and the inhibition in vivo at 3 mg/kg ([4]; Mus musculus, Table 5, mice, 3 mg./kg., read-out: Percent Antagonism Apomorphine Pre-30 min.) was 24%. For the same compound, the “Concentration in mcg./ml. that blocks 50% of amine uptake, Serotonin” value [12] was “.16 µg/mL” and the “Concentration in mcg./ml. that blocks 50% of amine uptake, Norepinephrine” value [11, 13] was 70 µg/mL.
In the case of CN(C)CCC(Oc1ccccc1)c1ccccc1 (stereo not shown) [phenyl], the “Percent Antagonism Reserpine Post-60 min.” value [3, 14] is reported as 20%, the “Percent Antagonism Reserpine Post-60 min.” value [3, 15] is reported as 49% and the “Concentration in mcg./ml. that blocks 50% of amine uptake, Dopamine” value ([10]; Table 1, dopamine 0.2 μM) is reported as “.3 µg/mL”. The “Percent Antagonism Apomorphine Pre-30 min.” value ([4]; Table 5, mice, 3 mg./kg.) was 3%, the “Percent Antagonism Apomorphine Pre-30 min.” value ([4]; Table 5, mice, 10 mg./kg.) was 54% and the “Concentration in mcg./ml. that blocks 50% of amine uptake, Serotonin” value [12] was “.6 µg/mL”. The “Concentration in mcg./ml. that blocks 50% of amine uptake, Norepinephrine” value [11, 13] was 1 µg/mL.
In the case of CN(C)CCC(Oc1cccc2ccccc12)c1ccccc1 (stereo not drawn) [α-naphthyl, N,N-dimethyl 3-(α-naphthyloxy)-3-phenylpropylamine], the “Percent Antagonism Reserpine Post-60 min.” value ([3]; Table 5, mice, 1 mg./kg. intraperitoneally) is reported as 15%, the “Percent Antagonism Reserpine Post-60 min.” value [3, 14] is reported as 4% and the “Percent Antagonism Reserpine Post-60 min.” value [3, 15] is reported as 15%. The “Concentration in mcg./ml. that blocks 50% of amine uptake, Dopamine” value ([10]; Table 1, dopamine 0.2 μM) was 2.5 µg/mL, the “Percent Antagonism Apomorphine Pre-30 min.” value ([4]; Table 5, mice, 1 mg./kg.) was -17% and the “Percent Antagonism Apomorphine Pre-30 min.” value ([4]; Table 5, mice, 3 mg./kg.) was -10%. For the same compound, the “Percent Antagonism Apomorphine Pre-30 min.” value ([4]; Table 5, mice, 10 mg./kg.) was -7%, the “Concentration in mcg./ml. that blocks 50% of amine uptake, Serotonin” value [12] was “.03 µg/mL” and the “Concentration in mcg./ml. that blocks 50% of amine uptake, Norepinephrine” value [11, 13] was 3 µg/mL.
